Assay results: PMC12624906, “Discovery of benzyl carbamate inhibitors of coronavirus M^pro enzymes from a legacy collection of cysteine protease inhibitors” (Journal of Enzyme Inhibition and Medicinal Chemistry, 2025)
Several values for one entry are separate records, joined by “and”; a condition that tells them apart may be missing. Equal values may be shown once. Read-outs that look alike come from different tables or passages of the source.

Experiments:
[1] = target: T1, human cathepsin L (hCatL) (Homo sapiens, UniProt P07711); set-up: method as in PMID 37435731; conditions: E-64 data reported previously; cited from earlier work
T1 construct: purchased R&D Systems 952-CY-010

[2] = tested on: Vero cells; set-up: method as in PMID 38194508; conditions: ribavirin data reported previously; cited from earlier work
[3] = tested on: L929 cells; set-up: method as in PMID 39072124; conditions: ribavirin data reported previously; cited from earlier work
[4] = target: SARS-CoV-2 PL^pro (Severe acute respiratory syndrome coronavirus 2, UniProt P0DTD1); test: biochemical; conditions: 15-min pre-incubation, one assay in triplicate (n = 3), mean ± SE
[5] = in vitro; conditions: green monkey
[6] = target: T2, SARS-CoV-2 M^pro (Severe acute respiratory syndrome coronavirus 2, UniProt P0DTD1); test: biochemical; type: biochemical; conditions: for IC50: 15-min pre-incubation, two independent assays in triplicate (n = 6)
[7] = target: MERS-CoV M^pro (Middle East respiratory syndrome-related coronavirus, UniProt K9N7C7); test: biochemical; type: biochemical; conditions: for IC50: n = 6
[8] = in vitro; conditions: mouse
[9] = target: T2, SARS-CoV-2 M^pro; type: biochemical; conditions: pre-incubated 30 min at 10-fold IC50 with 100× enzyme, diluted 100-fold to 0.1-fold IC50; monitored 2 h
[10] = target: SARS-CoV M^pro (Severe acute respiratory syndrome coronavirus, UniProt P0C6X7); test: biochemical; type: biochemical; conditions: for IC50: n = 6
[11] = target: T2, SARS-CoV-2 M^pro; test: biochemical; type: biochemical; conditions: for fold decrease in IC50 with 15-min pre-incubation vs without: SARS-CoV-2 M^pro, 15-min vs 0-min pre-incubation
[12] = target: T2, SARS-CoV-2 M^pro; test: biochemical; conditions: compound at 10 μM, 15-min pre-incubation, relative to DMSO control, mean ± SE; for % inhibition of SARS-CoV-2 M^pro activity: 10 µM
[13] = target: T1, human cathepsin L (hCatL); test: hCatL inhibition assay (Z-Phe-Arg-AMC); type: biochemical; conditions: 15-min pre-incubation; pH 5.5; n = 6
[14] = 15-min pre-incubation before substrate, value per independent assay (Figure 3, black), read-out: IC50 SARS-CoV-2 M^pro, 15-min pre-incubation
[15] = 30-min pre-incubation before substrate, value per independent assay (Figure 3, violet), read-out: IC50 SARS-CoV-2 M^pro, 30-min pre-incubation
[16] = no pre-incubation before substrate, value per independent assay (Figure 3, teal), read-out: IC50 SARS-CoV-2 M^pro, 0-min pre-incubation

T1 sequence (P07711 114-333): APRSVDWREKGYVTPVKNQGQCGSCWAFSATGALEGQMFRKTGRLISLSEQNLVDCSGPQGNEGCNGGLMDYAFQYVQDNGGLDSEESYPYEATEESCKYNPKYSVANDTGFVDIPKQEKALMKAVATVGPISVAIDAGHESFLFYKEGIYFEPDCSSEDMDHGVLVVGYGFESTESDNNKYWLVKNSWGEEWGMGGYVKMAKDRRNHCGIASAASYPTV
Sequence of MERS-CoV M^pro (K9N7C7 3248-3553 limits assumed): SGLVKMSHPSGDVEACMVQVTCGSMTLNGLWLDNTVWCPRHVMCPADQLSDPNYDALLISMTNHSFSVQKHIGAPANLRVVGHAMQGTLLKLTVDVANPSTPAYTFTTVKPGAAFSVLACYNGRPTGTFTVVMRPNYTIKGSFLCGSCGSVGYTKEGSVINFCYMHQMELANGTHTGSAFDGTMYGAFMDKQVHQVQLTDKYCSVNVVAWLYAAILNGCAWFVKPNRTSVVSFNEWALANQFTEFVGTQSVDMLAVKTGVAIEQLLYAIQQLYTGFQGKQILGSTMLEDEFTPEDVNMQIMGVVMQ

SMILES | inhibition at 10 µM [4] | CC50 at 48 h [5] | IC50 [6] | IC50 [7] | CC50 at 48 h [8] | inhibition after rapid dilution (reversibility) [9] | IC50 [10] | IC50 [11, 14] | IC50 [11, 15] | fold decrease in IC50 with 15-min pre-incubation vs without [11] | IC50 [11, 16] | inhibition at 10 µM [12] | IC50 [13] | other results
CC(C)C[C@H](NC(=O)[C@H]1O[C@@H]1C(=O)O)C(=O)NCCCCN=C(N)N [Compound E-64] | – | – | – | – | – | – | – | – | – | – | – | – | – | IC50 [1]: 0.008 ± 0.001 µM
NC(=O)c1ncn([C@@H]2O[C@H](CO)[C@@H](O)[C@H]2O)n1 [Ribavirin, ribavirin] | – | – | – | – | – | – | – | – | – | – | – | – | – | CC50 [2]: > 100 µM; CC50 [3]: > 100 µM
COC(=O)/C=C/C(=O)[C@@H](C)NC(=O)[C@H](Cc1ccccc1)NC(=O)OCc1ccccc1 [Compound 1a] | 0% | 17.2 ± 0.5 µM | 0.415 ± 0.018 µM | 3.79 ± 0.64 µM | 73.5 ± 4.34 µM | reversible inhibition | 0.699 ± 0.0125 µM | 0.433 µM and 0.397 µM | 0.249 µM and 0.301 µM | ~2 fold | 1.02 µM and 1.16 µM | > 95% | 0.319 ± 0.001 µM | % inhibition of SARS-CoV-2 M^pro activity [12]: 96.75 ± 1.04%
C=CC(=O)[C@@H](C)NC(=O)[C@@H](Cc1ccccc1)NC(=O)OCc1ccccc1 [Compound 5a] | 6.14 ± 2.42% | 49 ± 3.28 µM | 0.16 ± 0.0058 µM | 0.83 ± 0.0535 µM | 102 ± 2.06 µM | reversible inhibition | 0.11 ± 0.0173 µM | 0.154 µM and 0.166 µM | 0.103 µM and 0.115 µM | ~4 fold | 0.757 µM and 0.708 µM | > 95% | > 10 µM | fold decrease in activity against MERS-CoV M^pro compared to SARS-related M^pro enzymes [7]: ~5 fold; % inhibition of SARS-CoV-2 M^pro activity [12]: 100.00 ± 0.00%; IC50 hCatL [13]: inactive
CCOC(=O)C1CCN(C(=O)N[C@@H](CC(C)C)C(=O)N[C@@H](/C=C/S(=O)(=O)c2ccccc2)COc2ccccc2)CC1 [Compound 3a] | 1.84 ± 2.85% | – | 16.42 ± 0.09 µM | > 10 µM | – | – | > 10 µM | – | – | – | – | 51.5 ± 1.38% | 0.763 ± 0.079 µM | –
O=C(N[C@H](CCc1ccccc1)C(=O)CS(=O)(=O)c1ccccc1)[C@H](Cc1ccccc1)NC(=O)N1CCOCC1 [Compound 4a] | 1.56 ± 4.68% | – | 8.72 ± 0.54 µM | > 10 µM | – | – | > 10 µM | – | – | – | – | 52.5 ± 3.61% | 10.7 ± 0.24 µM | –
C=CC(=O)[C@H](C)NC(=O)[C@@H](Cc1ccccc1)NC(=O)OCc1ccccc1 [Compound 5b] | – | 37.5 ± 2.14 µM | 0.128 ± 0.006 µM | – | 85.9 ± 1.69 µM | reversible inhibition | 0.073 µM and 0.0732 µM | 0.134 µM and 0.122 µM | 0.114 µM and 0.111 µM | ~4 fold | 0.639 µM and 0.707 µM | 100% | > 10 µM | fold less potent than nirmatrelvir, SARS-CoV-2 M^pro IC50 [6]: approximately 7 fold; fold greater IC50 than nirmatrelvir, SARS-CoV M^pro [10]: 2.4 fold; IC50 hCatL [13]: inactive
O=C(NC(CCc1ccccc1)C(O)c1cc1=O)C(Cc1ccccc1)NC(=O)N1CCOCC1 (centres unmarked) [Compound 2a] | 5.2 ± 1.23% | – | 8.12 ± 0.04 µM | > 10 µM | – | – | > 10 µM | – | – | – | – | 54 ± 1.34% | 0.184 ± 0.003 µM | –
